Experimental data from patent publication US11981658B2, “Substituted aminopyridine compounds as EGFR inhibitors” (YUHAN CORPORATION, priority 2021, dated 2024).
Read-outs that look alike come from different tables or passages of the source.

Tests used:
EGFR Del19/T790M/C797S = EGFR Del19/T790M/C797S (Homo sapiens, UniProt P00533, C797S/DEL746-750/T790M); assay: Biochemical EGFR kinase inhibition assay (Lance Ultra TR-FRET), triple mutant del19/T790M/C797S
Outline: (§1)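 Step 1: compound in kinase buffer, 0.003–10 μM. Step 2: kinase reaction 1 h at room temperature. Step 4: TR-FRET read at 615/665 nm; IC50 calculated.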

EGFR wildtype (WT) = EGFR wildtype (WT) (Homo sapiens, UniProt P00533); assay: Biochemical EGFR kinase inhibition assay (Lance Ultra TR-FRET), wildtype
Outline: as §1

EGFR L858R/C797S = EGFR L858R/C797S (Homo sapiens, UniProt P00533, C797S/L858R); assay: Biochemical EGFR kinase inhibition assay (Lance Ultra TR-FRET), double mutant L858R/C797S
Sequence of EGFR L858R/C797S (P00533 25-1210 C797S/L858R): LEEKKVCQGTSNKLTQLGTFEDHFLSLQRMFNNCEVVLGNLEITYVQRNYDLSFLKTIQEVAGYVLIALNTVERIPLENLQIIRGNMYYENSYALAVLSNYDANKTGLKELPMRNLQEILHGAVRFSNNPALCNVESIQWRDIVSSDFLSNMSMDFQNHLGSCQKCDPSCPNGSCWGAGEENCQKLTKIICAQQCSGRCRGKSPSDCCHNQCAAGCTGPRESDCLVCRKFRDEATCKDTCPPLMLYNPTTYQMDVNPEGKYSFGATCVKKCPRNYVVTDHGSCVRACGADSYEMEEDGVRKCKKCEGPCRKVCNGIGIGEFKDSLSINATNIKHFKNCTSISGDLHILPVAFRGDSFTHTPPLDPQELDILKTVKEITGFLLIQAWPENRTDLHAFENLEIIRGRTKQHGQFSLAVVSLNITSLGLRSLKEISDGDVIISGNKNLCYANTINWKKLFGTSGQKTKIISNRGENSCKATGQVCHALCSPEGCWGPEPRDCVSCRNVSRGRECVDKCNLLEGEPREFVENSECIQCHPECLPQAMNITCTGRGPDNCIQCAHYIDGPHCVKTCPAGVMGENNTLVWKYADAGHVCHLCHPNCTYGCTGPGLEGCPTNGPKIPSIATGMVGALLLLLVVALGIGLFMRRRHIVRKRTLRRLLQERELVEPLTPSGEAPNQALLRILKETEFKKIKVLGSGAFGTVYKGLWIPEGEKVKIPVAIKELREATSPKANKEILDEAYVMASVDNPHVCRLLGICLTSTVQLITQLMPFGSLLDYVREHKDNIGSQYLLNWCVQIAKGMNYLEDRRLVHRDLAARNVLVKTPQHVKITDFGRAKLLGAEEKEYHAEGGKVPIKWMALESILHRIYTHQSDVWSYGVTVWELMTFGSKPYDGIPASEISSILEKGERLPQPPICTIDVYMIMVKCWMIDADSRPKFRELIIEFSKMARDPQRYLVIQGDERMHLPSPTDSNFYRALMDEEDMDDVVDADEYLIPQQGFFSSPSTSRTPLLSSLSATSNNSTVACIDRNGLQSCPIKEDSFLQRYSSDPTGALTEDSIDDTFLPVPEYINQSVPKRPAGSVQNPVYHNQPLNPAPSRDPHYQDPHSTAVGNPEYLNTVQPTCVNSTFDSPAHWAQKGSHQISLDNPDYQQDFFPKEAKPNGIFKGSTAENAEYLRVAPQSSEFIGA
Outline: as §1

EGFR Del19/C797S = EGFR Del19/C797S (Homo sapiens, UniProt P00533, C797S/DEL746-750); assay: Biochemical EGFR kinase inhibition assay (Lance Ultra TR-FRET), double mutant del19/C797S
Sequence of EGFR Del19/C797S (P00533 with tags, fused parts or gaps DEL746-750/C797S): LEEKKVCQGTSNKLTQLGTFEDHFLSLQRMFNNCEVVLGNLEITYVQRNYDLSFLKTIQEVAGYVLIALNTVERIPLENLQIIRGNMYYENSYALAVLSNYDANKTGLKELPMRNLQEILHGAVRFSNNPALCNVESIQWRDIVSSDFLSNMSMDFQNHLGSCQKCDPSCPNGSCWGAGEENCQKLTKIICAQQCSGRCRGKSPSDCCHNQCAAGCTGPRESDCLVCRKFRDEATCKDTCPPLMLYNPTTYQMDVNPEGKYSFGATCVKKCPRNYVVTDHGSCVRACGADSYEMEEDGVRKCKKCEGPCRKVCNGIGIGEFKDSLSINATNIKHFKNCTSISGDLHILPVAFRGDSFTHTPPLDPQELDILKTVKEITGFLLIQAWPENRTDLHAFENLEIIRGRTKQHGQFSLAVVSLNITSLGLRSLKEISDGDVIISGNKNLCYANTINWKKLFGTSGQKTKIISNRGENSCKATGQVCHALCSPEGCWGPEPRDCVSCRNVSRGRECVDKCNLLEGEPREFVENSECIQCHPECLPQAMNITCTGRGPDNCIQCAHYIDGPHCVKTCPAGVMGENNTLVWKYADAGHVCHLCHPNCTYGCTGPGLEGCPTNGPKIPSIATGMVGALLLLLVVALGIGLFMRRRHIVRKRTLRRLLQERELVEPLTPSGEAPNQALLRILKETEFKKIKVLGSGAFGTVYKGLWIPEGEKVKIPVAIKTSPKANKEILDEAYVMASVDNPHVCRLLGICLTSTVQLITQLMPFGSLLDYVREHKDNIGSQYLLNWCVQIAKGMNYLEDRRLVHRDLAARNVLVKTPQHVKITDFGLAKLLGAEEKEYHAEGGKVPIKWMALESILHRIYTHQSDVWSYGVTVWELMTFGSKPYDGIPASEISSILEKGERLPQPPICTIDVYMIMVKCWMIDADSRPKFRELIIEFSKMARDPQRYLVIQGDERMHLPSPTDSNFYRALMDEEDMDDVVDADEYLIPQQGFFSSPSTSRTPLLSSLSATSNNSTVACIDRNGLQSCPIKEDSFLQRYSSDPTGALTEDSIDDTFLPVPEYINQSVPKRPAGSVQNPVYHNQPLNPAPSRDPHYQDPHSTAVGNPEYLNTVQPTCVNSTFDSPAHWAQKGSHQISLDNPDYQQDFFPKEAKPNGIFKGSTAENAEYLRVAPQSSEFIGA
Outline: as §1

EGFR L858R/T790M/C797S = EGFR L858R/T790M/C797S (Homo sapiens, UniProt P00533, C797S/L858R/T790M); assay: Biochemical EGFR kinase inhibition assay (Lance Ultra TR-FRET), triple mutant L858R/T790M/C797S
Sequence of EGFR L858R/T790M/C797S (P00533 25-1210 T790M/C797S/L858R): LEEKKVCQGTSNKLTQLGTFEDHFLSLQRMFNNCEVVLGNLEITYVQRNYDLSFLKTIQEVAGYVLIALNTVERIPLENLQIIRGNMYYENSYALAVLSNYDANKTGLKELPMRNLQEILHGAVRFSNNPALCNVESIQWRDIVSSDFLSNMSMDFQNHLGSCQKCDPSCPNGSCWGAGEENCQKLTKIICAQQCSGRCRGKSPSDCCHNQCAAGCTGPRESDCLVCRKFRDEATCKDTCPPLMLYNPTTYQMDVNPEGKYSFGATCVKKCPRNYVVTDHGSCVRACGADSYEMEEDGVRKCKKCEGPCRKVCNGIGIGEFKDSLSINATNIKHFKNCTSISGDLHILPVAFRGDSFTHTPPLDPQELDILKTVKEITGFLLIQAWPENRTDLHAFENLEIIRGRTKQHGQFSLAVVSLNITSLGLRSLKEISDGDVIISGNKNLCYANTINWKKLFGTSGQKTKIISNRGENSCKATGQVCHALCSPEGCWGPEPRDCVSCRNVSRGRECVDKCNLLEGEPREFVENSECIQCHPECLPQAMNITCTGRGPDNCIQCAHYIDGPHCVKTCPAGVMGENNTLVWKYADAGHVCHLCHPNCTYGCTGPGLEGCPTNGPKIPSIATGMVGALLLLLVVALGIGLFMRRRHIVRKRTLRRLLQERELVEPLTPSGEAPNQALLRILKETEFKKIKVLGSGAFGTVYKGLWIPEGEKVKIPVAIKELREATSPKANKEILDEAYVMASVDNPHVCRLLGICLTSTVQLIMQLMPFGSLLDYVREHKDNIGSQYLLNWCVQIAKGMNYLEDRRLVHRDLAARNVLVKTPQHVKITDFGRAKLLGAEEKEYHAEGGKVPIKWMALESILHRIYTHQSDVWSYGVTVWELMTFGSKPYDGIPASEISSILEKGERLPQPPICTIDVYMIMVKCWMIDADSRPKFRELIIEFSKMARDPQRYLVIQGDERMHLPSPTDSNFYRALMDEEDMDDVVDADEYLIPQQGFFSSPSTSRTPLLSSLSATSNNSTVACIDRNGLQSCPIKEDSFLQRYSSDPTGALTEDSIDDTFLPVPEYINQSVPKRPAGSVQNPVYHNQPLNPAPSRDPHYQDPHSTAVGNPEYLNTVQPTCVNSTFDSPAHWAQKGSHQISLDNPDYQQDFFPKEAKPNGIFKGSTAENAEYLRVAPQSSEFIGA
Outline: as §1

[1] = ATP at Km, read-out: IC50 Del19/T790M/C797S (nM), Km ATP
[2] = IC50 Del19/T790M/C797S (nM), 100 μM ATP
[3] = ATP at Km, read-out: IC50 WT (nM), Km ATP
[4] = ATP at Km, read-out: IC50 L858R/C797S (nM), Km ATP
[5] = IC50 L858R/C797S (nM), 100 μM ATP
[6] = ATP at Km, read-out: IC50 Del19/C797S (nM), Km ATP
[7] = IC50 Del19/C797S (nM), 100 μM ATP
[8] = ATP at Km, read-out: IC50 L858R/T790M/C797S (nM), Km ATP
[9] = IC50 L858R/T790M/C797S (nM), 100 μM ATP
[10] = Km ATP, read-out: IC50 Del19/T790M/C797S (nM) Km ATP
[11] = Km ATP, read-out: IC50 WT (nM) Km ATP
[12] = Km ATP, read-out: IC50 L858R/C797S (nM) Km ATP
[13] = Km ATP, read-out: IC50 Del19/C797S (nM) Km ATP
[14] = Km ATP, read-out: IC50 L858R/T790M/C797S (nM) Km ATP
[15] = Km ATP, read-out: IC50 Del19/T790M/C797S (nM), Km ATP
[16] = Km ATP, read-out: IC50 WT (nM), Km ATP
[17] = Km ATP, read-out: IC50 L858R/C797S (nM), Km ATP
[18] = Km ATP, read-out: IC50 Del19/C797S (nM), Km ATP
[19] = Km ATP, read-out: IC50 L858R/T790M/C797S (nM), Km ATP

Sequence of EGFR Del19/T790M/C797S (P00533 with tags, fused parts or gaps DEL746-750/T790M/C797S): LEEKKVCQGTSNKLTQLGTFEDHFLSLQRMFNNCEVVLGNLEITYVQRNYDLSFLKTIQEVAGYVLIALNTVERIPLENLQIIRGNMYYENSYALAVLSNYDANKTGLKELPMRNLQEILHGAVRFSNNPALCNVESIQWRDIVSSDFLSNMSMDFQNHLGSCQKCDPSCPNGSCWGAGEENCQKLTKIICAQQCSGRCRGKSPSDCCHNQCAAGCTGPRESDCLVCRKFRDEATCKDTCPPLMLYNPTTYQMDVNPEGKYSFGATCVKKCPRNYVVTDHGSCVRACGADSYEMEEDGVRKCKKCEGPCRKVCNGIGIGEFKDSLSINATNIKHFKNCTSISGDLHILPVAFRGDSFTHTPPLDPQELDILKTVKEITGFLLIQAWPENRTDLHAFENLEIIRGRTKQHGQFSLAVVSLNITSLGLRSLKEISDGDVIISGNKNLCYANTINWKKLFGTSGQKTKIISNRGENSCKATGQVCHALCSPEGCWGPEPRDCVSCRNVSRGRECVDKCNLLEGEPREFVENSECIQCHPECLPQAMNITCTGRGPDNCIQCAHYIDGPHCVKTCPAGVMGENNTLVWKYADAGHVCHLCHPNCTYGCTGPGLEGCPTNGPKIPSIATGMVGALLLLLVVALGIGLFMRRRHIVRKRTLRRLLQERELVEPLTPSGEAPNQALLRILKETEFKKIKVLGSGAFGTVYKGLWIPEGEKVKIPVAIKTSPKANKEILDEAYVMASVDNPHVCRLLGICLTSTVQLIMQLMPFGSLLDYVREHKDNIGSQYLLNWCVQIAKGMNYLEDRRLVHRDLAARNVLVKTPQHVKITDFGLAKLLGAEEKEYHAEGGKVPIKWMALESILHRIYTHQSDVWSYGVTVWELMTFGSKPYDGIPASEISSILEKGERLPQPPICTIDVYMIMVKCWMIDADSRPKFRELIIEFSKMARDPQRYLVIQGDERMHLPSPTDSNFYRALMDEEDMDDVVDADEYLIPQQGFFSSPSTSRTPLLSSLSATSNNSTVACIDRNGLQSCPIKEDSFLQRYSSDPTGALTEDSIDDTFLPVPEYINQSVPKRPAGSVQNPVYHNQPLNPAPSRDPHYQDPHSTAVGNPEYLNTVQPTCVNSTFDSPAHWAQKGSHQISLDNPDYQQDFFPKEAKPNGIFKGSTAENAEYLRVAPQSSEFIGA

IC50 (EGFR Del19/T790M/C797S; [1]) [nM]	IC50 (EGFR Del19/T790M/C797S; [2]) [nM]	IC50 (EGFR wildtype (WT); [3]) [nM]	IC50 (EGFR wildtype (WT); IC50 WT (nM), 100 μM ATP) [nM]	IC50 (EGFR L858R/C797S; [4]) [nM]	IC50 (EGFR L858R/C797S; [5]) [nM]	IC50 (EGFR Del19/C797S; [6]) [nM]	IC50 (EGFR Del19/C797S; [7]) [nM]	IC50 (EGFR L858R/T790M/C797S; [8]) [nM]	IC50 (EGFR L858R/T790M/C797S; [9]) [nM]	IC50 (EGFR Del19/T790M/C797S; [10]) [nM]	IC50 (EGFR wildtype (WT); [11]) [nM]	IC50 (EGFR L858R/C797S; [12]) [nM]	IC50 (EGFR Del19/C797S; [13]) [nM]	IC50 (EGFR L858R/T790M/C797S; [14]) [nM]	IC50 (EGFR Del19/T790M/C797S; [15]) [nM]	IC50 (EGFR wildtype (WT); [16]) [nM]	IC50 (EGFR L858R/C797S; [17]) [nM]	IC50 (EGFR Del19/C797S; [18]) [nM]	IC50 (EGFR L858R/T790M/C797S; [19]) [nM]	Compound
	0.3		1790		7.6		1.4		0.4						0.1	3	0.9	0.9	0.1	CN(C)CCC1CCCN(c2cc(Nc3ccnc(-c4cnn(S(=O)(=O)C5CC5)c4)n3)ncc2C#Cc2cnn(CCF)c2)C1 (centres unmarked) [Example 386, 2-(1-(Cyclopropylsulfonyl)-1H-pyrazol-4-yl)-N-(4-(3-(2-(dimethylamino)ethyl)piperidin-1-yl)-5-((1-(2-fluoroethyl)-1H-pyrazol-4-yl)ethynyl)pyridin-2-yl)pyrimidin-4-amine]
	0.2		5450		47.7		2.4		0.3						0.3	8.8	1.9	2	0.2	CC1(O)CCN(c2cc(Nc3ccnc(-c4cnn(S(=O)(=O)C5CC5)c4)n3)ncc2C#CC2CC3CCC2O3)CC1 (centres unmarked) [Example 424, 1-(5-((7-Oxabicyclo[2.2.1]heptan-2-yl)ethynyl)-2-((2-(1-(cyclopropylsulfonyl)-1H-pyrazol-4-yl)pyrimidin-4-yl)amino)pyridin-4-yl)-4-methylpiperidin-4-o 1]
	0.3		4710		14		1.5		0.4						0.2	9.2	1.5	1.4	0.1	CC1(CO)CCN(c2cc(Nc3ccnc(-c4cnn(S(=O)(=O)C5CC5)c4)n3)ncc2C#CC2(O)CCCOC2)CC1 (centres unmarked) [Example 357, 3-((6-((2-(1-(Cyclopropylsulfonyl)-1H-pyrazol-4-yl)pyrimidin-4-yl)amino)-4-(4-(hydroxymethyl)-4-methylpiperidin-1-yl)pyridin-3-yl)ethynyl)tetrahydro-2H-pyran-3-ol]
	0.5		> 10000		28.5		1.9		0.2						0.1	18.6	4.9	4	0.1	O=S1(=O)CCC(C#Cc2cnc(Nc3ccnc(-c4cnn(S(=O)(=O)C5CC5)c4)n3)cc2NC2CCC(CO)CC2)C1 (centres unmarked) [Example 428, 3-((6-((2-(1-(Cyclopropylsulfonyl)-1H-pyrazol-4-yl)pyrimidin-4-yl)amino)-4-(((1s,4s)-4-(hydroxymethyl)cyclohexyl)amino)pyridin-3-yl)ethynyl)tetrahydrothiophene 1,1-dioxide]
0.8	1	2.5	1250	0.1	1.3	0.4	1.1	0.4	0.6											CC1(CO)CCN(c2cc(Nc3ccnc(-c4cnn(S(=O)(=O)C5CC5)c4)n3)ncc2C#CCCN2CCOCC2)CC1 [Example 285, (1-(2-((2-(1-(Cyclopropylsulfonyl)-1H-pyrazol-4-yl)pyrimidin-4-yl)amino)-5-(4-morpholinobut-1-yn-1-yl)pyridin-4-yl)-4-methylpiperidin-4-yl)methanol]
0.7	0.9	52.6	> 10000	3.4	78.4	5.4	9.9	0.2	0.2											CN(C)C[C@H]1CC[C@@H](Nc2cc(Nc3ccnc(-c4cnn(S(=O)(=O)C5CC5)c4)n3)ncc2C#Cc2cnn(C(F)(F)F)c2)CC1 [Example 314, N^2-(2-(1-(Cyclopropylsulfonyl)-1H-pyrazol-4-yl)pyrimidin-4-yl)-N^4-((1s,4s)-4-((dimethylamino)methyl)cyclohexyl)-5-((1-(trifluoromethyl)-1H-pyrazol-4-yl)ethynyl)pyridine-2,4-diamine]
	5.7		> 10000		> 10000		26.2		8.6											CC1(CO)CCN(c2cc(Nc3ccnc(-c4cnn(S(=O)(=O)C5CC5)c4)n3)ncc2C#Cc2cc(C(F)(F)F)n[nH]2)CC1 [Example 290, (1-(2-((2-(1-(Cyclopropylsulfonyl)-1H-pyrazol-4-yl)pyrimidin-4-yl)amino)-5-((3-(trifluoromethyl)-1H-pyrazol-5-yl)ethynyl)pyridin-4-yl)-4-methylpiperidin-4-yl)methanol]

The next lines start with the molecule.

Compound	IC50 (EGFR Del19/T790M/C797S; [1]) [nM]	IC50 (EGFR Del19/T790M/C797S; [2]) [nM]	IC50 (EGFR wildtype (WT); [3]) [nM]	IC50 (EGFR wildtype (WT); IC50 WT (nM), 100 μM ATP) [nM]	IC50 (EGFR L858R/C797S; [4]) [nM]	IC50 (EGFR L858R/C797S; [5]) [nM]	IC50 (EGFR Del19/C797S; [6]) [nM]	IC50 (EGFR Del19/C797S; [7]) [nM]	IC50 (EGFR L858R/T790M/C797S; [8]) [nM]	IC50 (EGFR L858R/T790M/C797S; [9]) [nM]	IC50 (EGFR Del19/T790M/C797S; [10]) [nM]	IC50 (EGFR wildtype (WT); [11]) [nM]	IC50 (EGFR L858R/C797S; [12]) [nM]	IC50 (EGFR Del19/C797S; [13]) [nM]	IC50 (EGFR L858R/T790M/C797S; [14]) [nM]	IC50 (EGFR Del19/T790M/C797S; [15]) [nM]	IC50 (EGFR wildtype (WT); [16]) [nM]	IC50 (EGFR L858R/C797S; [17]) [nM]	IC50 (EGFR Del19/C797S; [18]) [nM]	IC50 (EGFR L858R/T790M/C797S; [19]) [nM]
Cc1cnc(C#Cc2cnc(Nc3ccnc(-c4cnn(S(=O)(=O)C5CC5)c4)n3)cc2N[C@@H]2CCC[C@H](O)C2)cn1 [Example 170, (1 S,3R)-3-((2-((2-(1-(Cyclopropylsulfonyl)-1H-pyrazol-4-yl)pyrimidin-4-yl)amino)-5-((5-methylpyrazin-2-yl)ethynyl)pyridin-4-yl)amino)cyclohexan-1-ol]	0.9	1	286	> 10000	23.8	316	4.4	19.9	0.6	5.7										
CC(=O)N1CCC(n2cc(C#Cc3cnc(Nc4ccnc(-c5cnn(S(=O)(=O)C6CC6)c5)n4)cc3N3CCC(C)(CO)CC3)cn2)CC1 [Example 110, 1-(4-(4-((6-((2-(1-(Cyclopropylsulfonyl)-1H-pyrazol-4-yl)pyrimidin-4-yl)amino)-4-(4-(hydroxymethyl)-4-methylpiperidin-1-yl)pyridin-3-yl)ethynyl)-1H-pyrazol-1-yl)piperidin-1-yl)ethan-1-one]		1.2		296		2.7		1.7		1.3	1.1	2.8	0.8	1.8	0.6					
CC1(CO)CCN(c2cc(Nc3ccnc(-c4cnn(S(=O)(=O)C5CC5)c4)n3)ncc2C#Cc2cnn(CC3CCOCC3)c2)CC1 [Example 231, (1-(2-((2-(1-(Cyclopropylsulfonyl)-1H-pyrazol-4-yl)pyrimidin-4-yl)amino)-5-((1-((tetrahydro-2H-pyran-4-yl)methyl)-1H-pyrazol-4-yl)ethynyl)pyridin-4-yl)-4-methylpiperidin-4-yl)methanol]		1.6		968		4.6		3		1.5	1.7	6.1	1.1	1.3	0.9					
CN(C)C(=O)c1ccc(C#Cc2cnc(Nc3ccnc(-c4cnn(S(=O)(=O)C5CC5)c4)n3)cc2N2CCC(C)(CO)CC2)cc1 [Example 262, 4-((6-((2-(1-(Cyclopropylsulfonyl)-1H-pyrazol-4-yl)pyrimidin-4-yl)amino)-4-(4-(hydroxymethyl)-4-methylpiperidin-1-yl)pyridin-3-yl)ethynyl)-N,N-dimethylbenzamide]	1.2	1.4	4.4	> 10000	0.9	5.7	0.8	1.1	0.4	1.3										
Cn1cc(C#Cc2cnc(Nc3ccnc(-c4cnn(S(=O)(=O)C5CC5)c4)n3)cc2N2CCC3(CCNC3=O)CC2)cn1 [Example 79, 8-(2-((2-(1-(Cyclopropylsulfonyl)-1H-pyrazol-4-yl)pyrimidin-4-yl)amino)-5-((1-methyl-1H-pyrazol-4-yl)ethynyl)pyridin-4-yl)-2,8-diazaspiro[4.5]decan-1-one]		0.3		7190		17.8		1.3		0.8	0.2	6.1	1.2	1.3	0.1					
CC1(CO)CCN(c2cc(Nc3ccnc(-c4cnn(S(=O)(=O)C5CC5)c4)n3)ncc2C#Cc2cnc(CN3CCOCC3)s2)CC1 [Example 192, (1-(2-((2-(1-(Cyclopropylsulfonyl)-1H-pyrazol-4-yl)pyrimidin-4-yl)amino)-5-((2-(morpholinomethyl)thiazol-5-yl)ethynyl)pyridin-4-yl)-4-methylpiperidin-4-yl)methanol]	1	1.5	6.1	1480	2.1	4.5	1.1	1.8	0.4	1.3										
